From patent US20140271930A1, “NONINVASIVE METHOD FOR MEASURING METABOLITES FOR SKIN HEALTH” (priority 2013, published 2014)
Marks after values point to notes of the source that are not given here. Peptide text beside a SMILES is read from it.

Tested on: scalp of dandruff and non-dandruff subjects
Assay: Metabolite expression profiling (LC/MS/MS, GC/MS/MS) of scalp D-Squame tape strip extracts: non-dandruff, dandruff baseline, dandruff after 3 weeks anti-dandruff shampoo
Assay type: in vivo, human
Conditions: for reduction / decrease of metabolite level vs dandruff baseline: after three weeks ZPT shampoo; for decrease of metabolite level vs dandruff baseline: after three weeks selenium sulfide shampoo; for Fold Change Wk 3 Sel vs Dandruff Baseline / Fold Change Wk 3 ZPT vs Dandruff Baseline / Fold Change Wk 3 ZPT vs Non-Dan Baseline / Fold Change Wk 3 Sel vs Non-Dan Baseline: metabolite level in scalp tape strips; for Fold Change Wk 3 Sel vs Dandruff Baseline / Fold Change Wk 3 ZPT vs Dandruff Baseline: standardized to soluble protein; for Fold Change Wk 3 Sel vs Dandruff Baseline: dandruff subjects after 3 weeks 1% selenium sulfide shampoo vs own baseline; for Fold Change Wk 3 ZPT vs Dandruff Baseline: dandruff subjects after 3 weeks 1% zinc pyrithione shampoo vs own baseline; for Fold Change Wk 3 ZPT vs Non-Dan Baseline: dandruff subjects after 3 weeks 1% ZPT shampoo vs non-dandruff subjects; for Fold Change Wk 3 Sel vs Non-Dan Baseline: dandruff subjects after 3 weeks 1% selenium sulfide shampoo vs non-dandruff subjects
Description: In an embodiment, the use of an adhesive device can be used to achieve such sampling. In preparation for such a sampling study for a dandruff sampling, at a baseline visit, a qualified screening grader will complete adherent scalp flaking score (ASFS) grading for each subject and the highest flaking octant will be identified for tape strip sampling. The highest flaking octant will be sampled at baseline and at various time points during and after treatment with product. Tape strips samples will be collected from each subject at each time point (e.g., baseline and week 3).
The tape strip sampling procedure is repeated additional times, as needed, at the same site placing each D-Squame® tape disc on top of the prior sampled area. The D-Squame® tapes after sample collection are placed into the appropriately labeled wells in a labeled plate.
Following the sampling, an extraction and quantitation procedure is conducted. In an embodiment of the present invention, quantitation of small molecules from extracts of D-Squame® Tape Samples can be conducted via analysis by either LC/MS/MS or GC/MS/MS. In this embodiment of the present invention, the sample extraction in preparation for Metabolite expression profiling technology was performed.
The D-Squame® tape sample plates are removed from −80° C. freezer where they are stored following sample collection, and placed on dry ice. The tape strips are inserted into pre-labeled polypropylene collection tubes, adhesive side facing inward. Extraction buffer containing methanol and water is added to each collection tube and then extracted on ice using sonication for 15 min. If necessary, additional tapes are placed in the collection tube containing the extract solution and the extraction process is repeated as a means of concentrating the sample. Each extract solution is isolated from the tape strip and an aliquot of each sample is placed into a pre-labeled polypropylene collection tubes and frozen at −80° C. for metabolite expression profiling analysis. A separate aliquot is specified for soluble protein analysis using a BCA™ Protein Assay Kit. For this analysis, the aliquot consisting of methanol and water is taken to dryness under a gentle stream of nitrogen. The sample is resuspended in an appropriate aqueous buffer (e.g., PBS/SDS (1× PBS+0.2% SDS) and analyzed for soluble protein.
The extracts are analyzed by GC/MS/MS and LC/MS/MS in positive and negative ion mode. Chromatographic separation followed by full scan mass spectra and MS/MS spectra is carried out to record and quantify all detectable ions present in the samples. Metabolites with known chemical structure can be identified by matching the ions' chromatographic retention index and mass spectra fragmentation signatures with reference library entries created from authentic standard metabolites under the identical analytical procedure as the experimental samples. Welch's Two Sample t-tests and matched-pair t-tests are used to analyze the data. […] The statistical analyses are performed on natural log-transformed data to reduce the effect of any potential outliers in the data. Welch's Two Sample t-test comparisons are made between the means of each biochemical from the various groups listed at the top of the tables and are calculated using either or both of the statistical analysis software programs: Array Studio (Omicsoft, Inc) or “R” from the Free Software Foundation, Inc.
Subjects are evaluated by a qualified grader to establish their scalp status. Dandruff subjects are identified by their level of visible flaking as assessed by a qualified grader. Non-dandruff healthy scalp subjects are evaluated at baseline to establish normalized levels of each biomarker. In this study, there are 60 non-dandruff subjects that are evaluated at baseline. […] They are evaluated at baseline, and after 3 weeks of product usage.

[1] = dandruff subjects after 3 weeks treatment with Sel shampoo, metabolite level in scalp tape strip extract
[2] = dandruff subjects after 3 weeks treatment with ZPT shampoo, metabolite level in scalp tape strip extract
[3] = relative metabolite level in scalp tape strips, dandruff subjects after 3 weeks 1% ZPT shampoo
[4] = relative metabolite level in scalp tape strips, dandruff subjects after 3 weeks 1% selenium sulfide shampoo

| Compound | Mean Values WEEK 3 TRT Sel [1] | Mean Values WEEK 3 TRT ZPT [2] | reduction / decrease of metabolite level vs dandruff baseline [%] | decrease of metabolite level vs dandruff baseline [%] | Fold Change Wk 3 Sel vs Dandruff Baseline | Fold Change Wk 3 Sel vs Dandruff Baseline (listed as 13-HODE+9-HODE) [fold] | Fold Change Wk 3 ZPT vs Dandruff Baseline | Fold Change Wk 3 ZPT vs Dandruff Baseline (listed as 13-HODE+9-HODE) [fold] | Fold Change Wk 3 ZPT vs Non-Dan Baseline | Fold Change Wk 3 Sel vs Non-Dan Baseline | Mean Values WEEK 3 TRT ZPT [3] | Mean Values WEEK 3 TRT Sel [4] |
| --- | --- | --- | --- | --- | --- | --- | --- | --- | --- | --- | --- | --- |
| CCCCCCCCCCCCCCCCC(=O)OCC(O)CO (stereo not drawn) | 0.638 | 1.1274 |  |  |  |  |  |  |  |  |  |  |
| 13- and 9-hydroxyoctadecadienoic acid [13-HODE + 9-HODE] | 0.4182 | 0.4413 | 74 | 66 | 0.34* fold | 0.34 | 0.26*** fold | 0.26 | 0.5*** fold | 0.48* fold |  |  |
| CCCCCCCCCCCCCCC(O)C(=O)O (stereo not drawn) [2-hydroxypalmitate] | 0.6696 | 0.8231 |  |  | 0.57* fold |  | 1.04 fold |  | 0.6* fold | 0.49* fold |  |  |
| O=C(O)C(O)Cc1ccc(O)cc1 (stereo not drawn) [3-(4-hydroxyphenyl)lactate] | 0.7878 | 0.7551 |  |  | 0.44* fold |  | 0.7*** fold |  | 0.8 fold | 0.84 fold |  |  |
| CC(C)CCC[C@@H](C)[C@H]1CC[C@H]2[C@@H]3[C@H](O)C=C4C[C@@H](O)CC[C@]4(C)[C@H]3CC[C@]12C [7-alpha-hydroxycholesterol] | 0.9662 | 0.959 |  |  |  |  |  |  |  |  |  |  |
| CCCCCCC=CCCCCCCCCC(=O)O [10-heptadecenoate (17:1n7), 10-heptadecenoate] | 0.4139 | 0.7411 |  |  | 0.33* fold |  | 0.67*** fold |  | 0.52*** fold | 0.29* fold |  |  |
| CCCCCCCCC=CCCCCCCCCC(=O)O [10-nonadecenoate (19:1n9), 10-nonadecenoate] | 0.1901 | 0.4088 |  |  | 0.14* fold |  | 0.31* fold |  | 0.38* fold | 0.17* fold |  |  |
| CC(C)CCCCCCCCCCCCCC(=O)O [15-methylpalmitate] | 0.3813 | 0.485 |  |  | 0.31* fold |  | 0.4* fold |  | 0.35* fold | 0.27* fold |  |  |
| CC(C)CCCCCCCCCCCCCCCC(=O)O [17-methylstearate] | 0.273 | 0.4446 |  |  | 0.21* fold |  | 0.36* fold |  | 0.35* fold | 0.22* fold |  |  |
| OC[C@@H](O)C(O)[C@H](O)CO [Arabitol] |  |  |  |  | 0.73 fold |  | 0.61* fold |  | 0.65 fold | 1.07 fold |  |  |
| O=C(O)c1ccccc1 [Benzoate] |  |  |  |  | 7.26**** fold |  | 2.02**** fold |  | 2.16**** fold | 4.26**** fold |  |  |
| NCCO [Ethanolamine] | 1.7285 | 0.976 |  |  | 1.63**** fold |  | 1.08 fold |  | 2.53**** fold | 4.49** fold |  |  |
| O=C(O)/C=C/C(=O)O [Fumarate] |  |  |  |  | 0.37*** fold |  | 0.53 fold |  | 0.68 fold | 0.76 fold |  |  |
| NCCCC(=O)O [Gamma-aminobutyrate (GABA), Gamma-aminobutyrate] |  |  |  |  |  |  |  |  |  |  | 0.1343 | 0.1888 |
| N[C@@H](CCC(=O)N[C@@H](CCC(=O)O)C(=O)O)C(=O)O [Gamma-glutamylglutamate] |  |  |  |  | 0.95 fold |  | 1.89** fold |  | 2.09** fold | 1.11 fold | 1.7984 | 0.9586 |
| N[C@@H](CCC(=O)O)C(=O)O [Glutamate] |  |  |  |  |  |  |  |  |  |  | 0.7627 | 1.0169 |
| NCC(=O)O [Glycine] |  |  |  |  |  |  |  |  |  |  | 0.7968 | 0.8645 |
| CC(C)CCC[C@@H](C)[C@H]1CC[C@H]2C3=CC[C@H]4C[C@@H](O)CC[C@]4(C)[C@H]3CC[C@]12C [Lathosterol] | 0.9469 | 0.7479 |  |  |  |  |  |  |  |  |  |  |
| CC(C)C[C@H](N)C(=O)N[C@@H](CCC(=O)O)C(=O)O [Leucylglutamate] (H-Leu-Glu-OH) | 0.9581 | 0.874 |  |  | 0.81* fold |  | 1.13 fold |  | 0.93 fold | 1.02 fold |  |  |
| CCCC/C=C\CCCCCCCC(=O)O [Myristoleate (14:1n5), Myristoleate] | 0.6261 | 0.8341 |  |  | 0.53*** fold |  | 0.8*** fold |  | 0.6* fold | 0.45* fold |  |  |
| Cn1cc(C(N)=O)ccc1=O [N1-Methyl-2-pyridone-5-carboxamide] | 0.8271 | 1.1768 |  |  | 0.89 fold |  | 1.57 fold |  | 0.76 fold | 0.54* fold |  |  |
| CCCCCC/C=C\CCCCCCCC(=O)O [Palmitoleate (16:1n7), Palmitoleate] | 0.6347 | 0.8507 |  |  | 0.55* fold |  | 0.83* fold |  | 0.58* fold | 0.43* fold |  |  |
| CCCCCCCCCCCCCCCCCC(=O)NCCO [Stearoyl ethanolamide] | 2.6645 | 2.3466 |  |  | 5.03** fold |  | 2.94 fold |  | 3.88** fold | 4.41** fold |  |  |
| NC(N)=O [Urea] | 2.5539 | 2.6469 |  |  | 2.81**** fold |  | 4.13 fold |  | 3.75 fold | 3.62** fold |  |  |
| O=c1[nH]c(=O)c2[nH]cnc2[nH]1 [Xanthine] |  |  | 84 | 85 |  |  |  |  |  |  |  |  |
